In the NIST ThermoML archive (doi:10.1021/je900093h):
± gives the expanded uncertainty stated by the source.

Assay: molar heat capacity at saturation pressure
Conditions: Crystal, Vacuum adiabatic calorimetry

CCCCCCCCCC(=O)OCC [ethyl decanoate]
Conditions | molar heat capacity [J/K/mol]
5.07 K | 0.5226 ± 0.014
5.31 K | 0.6118 ± 0.015
5.56 K | 0.7121 ± 0.016
5.81 K | 0.825 ± 0.017
6.07 K | 0.9558 ± 0.018
6.36 K | 1.118 ± 0.02
6.69 K | 1.318 ± 0.022
7.02 K | 1.545 ± 0.025
7.35 K | 1.796 ± 0.028
7.7 K | 2.073 ± 0.031
8.04 K | 2.376 ± 0.034
8.4 K | 2.709 ± 0.037
8.76 K | 3.071 ± 0.04
9.12 K | 3.453 ± 0.044
9.48 K | 3.859 ± 0.048
9.85 K | 4.299 ± 0.052
10.32 K | 4.888 ± 0.057
10.9 K | 5.635 ± 0.064
11.48 K | 6.424 ± 0.071
12.07 K | 7.27 ± 0.079
12.66 K | 8.157 ± 0.087
13.26 K | 9.088 ± 0.095
13.87 K | 10.03 ± 0.1
14.47 K | 11.01 ± 0.11
15.09 K | 12.05 ± 0.12
15.81 K | 13.35 ± 0.13
16.64 K | 14.88 ± 0.14
17.48 K | 16.38 ± 0.16
18.32 K | 17.92 ± 0.17
19.16 K | 19.47 ± 0.18
20.01 K | 21.05 ± 0.19
21.18 K | 23.32 ± 0.21
22.7 K | 26.32 ± 0.24
24.23 K | 29.4 ± 0.26
25.75 K | 32.51 ± 0.28
27.29 K | 35.64 ± 0.31
28.39 K | 37.87 ± 0.32
29.64 K | 40.42 ± 0.34
31.35 K | 43.96 ± 0.37
33.22 K | 47.77 ± 0.4
35.1 K | 51.55 ± 0.43
36.98 K | 55.32 ± 0.46
38.87 K | 59.03 ± 0.49
40.75 K | 62.74 ± 0.52
42.73 K | 66.71 ± 0.55
44.82 K | 70.83 ± 0.58
46.9 K | 74.94 ± 0.62
49 K | 78.99 ± 0.65
51.09 K | 82.94 ± 0.68
53.19 K | 86.89 ± 0.71
55.3 K | 90.74 ± 0.74
57.4 K | 94.51 ± 0.77
59.52 K | 98.2 ± 0.8
61.64 K | 101.8 ± 0.8
63.76 K | 105.3 ± 0.9
65.89 K | 108.8 ± 0.9
68.01 K | 112.1 ± 0.9
70.14 K | 115.4 ± 0.9
72.38 K | 118.9 ± 1
74.72 K | 122.4 ± 1
77.07 K | 125.9 ± 1
79.44 K | 129.4 ± 1.1
80.12 K | 130.3 ± 1.1
81.8 K | 132.9 ± 1.1
81.98 K | 133 ± 1.1
83.85 K | 135.7 ± 1.1
84.15 K | 136.2 ± 1.1
85.73 K | 138.3 ± 1.1
87.62 K | 141 ± 1.2
89.51 K | 143.6 ± 1.2
91.41 K | 146.2 ± 1.2
93.31 K | 148.8 ± 1.2
95.22 K | 151.3 ± 1.2
97.14 K | 153.8 ± 1.3
99.06 K | 156.2 ± 1.3
100.98 K | 158.7 ± 1.3
102.91 K | 161 ± 1.3
104.84 K | 163.3 ± 1.3
106.77 K | 165.7 ± 1.4
108.71 K | 167.9 ± 1.4
110.66 K | 170 ± 1.4
112.6 K | 172.2 ± 1.4
114.55 K | 174.3 ± 1.4
116.5 K | 176.4 ± 1.4
118.46 K | 178.5 ± 1.5
120.41 K | 180.4 ± 1.5
122.37 K | 182.4 ± 1.5
124.33 K | 184.3 ± 1.5
126.29 K | 186.2 ± 1.5
128.26 K | 188 ± 1.5
130.23 K | 189.8 ± 1.5
130.37 K | 189.7 ± 1.5
132.19 K | 191.6 ± 1.6
132.31 K | 191.5 ± 1.6
134.17 K | 193.3 ± 1.6
134.25 K | 193.3 ± 1.6
136.14 K | 195.1 ± 1.6
136.19 K | 195 ± 1.6
138.12 K | 196.8 ± 1.6
138.13 K | 196.6 ± 1.6
140.08 K | 198.3 ± 1.6
140.1 K | 198.4 ± 1.6
142.02 K | 200 ± 1.6
142.07 K | 200.1 ± 1.6
143.97 K | 201.6 ± 1.6
144.06 K | 201.8 ± 1.6
145.92 K | 203.3 ± 1.7
146.04 K | 203.6 ± 1.7
147.87 K | 205 ± 1.7
148.02 K | 205.3 ± 1.7
149.82 K | 206.5 ± 1.7
150 K | 206.9 ± 1.7
151.77 K | 208.2 ± 1.7
151.98 K | 208.5 ± 1.7
153.72 K | 209.7 ± 1.7
153.97 K | 210 ± 1.7
155.68 K | 211.2 ± 1.7
155.95 K | 211.5 ± 1.7
157.63 K | 212.8 ± 1.7
157.93 K | 213.2 ± 1.7
159.59 K | 214.4 ± 1.7
159.92 K | 214.8 ± 1.7
161.55 K | 215.9 ± 1.8
161.91 K | 216.3 ± 1.8
163.5 K | 217.4 ± 1.8
163.89 K | 217.8 ± 1.8
165.46 K | 218.9 ± 1.8
165.88 K | 219.2 ± 1.8
167.42 K | 220.4 ± 1.8
167.86 K | 220.8 ± 1.8
169.38 K | 222 ± 1.8
169.85 K | 222.3 ± 1.8
171.34 K | 223.6 ± 1.8
171.83 K | 223.9 ± 1.8
173.3 K | 225.1 ± 1.8
173.81 K | 225.6 ± 1.8
175.26 K | 226.6 ± 1.8
175.79 K | 227.1 ± 1.8
177.23 K | 228.3 ± 1.9
177.77 K | 228.7 ± 1.9
179.19 K | 229.8 ± 1.9
179.74 K | 230.3 ± 1.9
180.73 K | 230.9 ± 1.9
181.15 K | 231.3 ± 1.9
181.61 K | 231.8 ± 1.9
181.72 K | 232 ± 1.9
182.71 K | 232.5 ± 1.9
183.11 K | 233.1 ± 1.9
183.59 K | 233.4 ± 1.9
183.69 K | 233.6 ± 1.9
184.69 K | 234.2 ± 1.9
185.07 K | 234.7 ± 1.9
185.57 K | 235.1 ± 1.9
185.67 K | 235.2 ± 1.9
186.66 K | 235.8 ± 1.9
187.04 K | 236.4 ± 1.9
187.54 K | 236.7 ± 1.9
187.64 K | 236.8 ± 1.9
188.63 K | 237.5 ± 1.9
189 K | 238 ± 1.9
189.52 K | 238.4 ± 1.9
189.6 K | 238.5 ± 1.9
190.6 K | 239.3 ± 1.9
190.96 K | 239.7 ± 1.9
191.49 K | 240 ± 1.9
191.57 K | 240.2 ± 1.9
191.61 K | 240.1 ± 1.9
192.56 K | 240.9 ± 2
192.93 K | 241.4 ± 2
193.45 K | 241.6 ± 2
193.53 K | 241.9 ± 2
193.58 K | 241.8 ± 2
194.53 K | 242.6 ± 2
194.89 K | 243.1 ± 2
195.42 K | 243.3 ± 2
195.48 K | 243.5 ± 2
195.54 K | 243.5 ± 2
196.49 K | 244.4 ± 2
196.85 K | 244.7 ± 2
197.38 K | 245 ± 2
197.44 K | 245.2 ± 2
197.5 K | 245.2 ± 2
198.44 K | 246.2 ± 2
198.81 K | 246.5 ± 2
199.33 K | 246.7 ± 2
199.39 K | 247 ± 2
199.46 K | 246.8 ± 2
200.4 K | 247.8 ± 2
200.77 K | 248.3 ± 2
201.28 K | 248.3 ± 2
201.35 K | 248.7 ± 2
201.46 K | 248.6 ± 2
202.35 K | 249.5 ± 2
202.74 K | 249.9 ± 2
203.24 K | 250.1 ± 2
203.29 K | 250.4 ± 2
203.52 K | 250.4 ± 2
204.3 K | 251.3 ± 2
